In patent publication US20220073496A1, “NOVEL QUINOLINE DERIVATIVE INHIBITOR” (Nanjing Transthera Biosciences Co., Ltd., priority 2018, published 2022):

How the values were obtained:
Mer (h) = molecular target: T1, Mer (h) (Homo sapiens, UniProt Q12866); experiment: Enzymatic activity test, Mer (h); format: biochemical; conditions: 10 μM [γ-33P]-ATP, 40 minutes, room temperature
T1 construct: purchased
T1 sequence (Q12866 21-999): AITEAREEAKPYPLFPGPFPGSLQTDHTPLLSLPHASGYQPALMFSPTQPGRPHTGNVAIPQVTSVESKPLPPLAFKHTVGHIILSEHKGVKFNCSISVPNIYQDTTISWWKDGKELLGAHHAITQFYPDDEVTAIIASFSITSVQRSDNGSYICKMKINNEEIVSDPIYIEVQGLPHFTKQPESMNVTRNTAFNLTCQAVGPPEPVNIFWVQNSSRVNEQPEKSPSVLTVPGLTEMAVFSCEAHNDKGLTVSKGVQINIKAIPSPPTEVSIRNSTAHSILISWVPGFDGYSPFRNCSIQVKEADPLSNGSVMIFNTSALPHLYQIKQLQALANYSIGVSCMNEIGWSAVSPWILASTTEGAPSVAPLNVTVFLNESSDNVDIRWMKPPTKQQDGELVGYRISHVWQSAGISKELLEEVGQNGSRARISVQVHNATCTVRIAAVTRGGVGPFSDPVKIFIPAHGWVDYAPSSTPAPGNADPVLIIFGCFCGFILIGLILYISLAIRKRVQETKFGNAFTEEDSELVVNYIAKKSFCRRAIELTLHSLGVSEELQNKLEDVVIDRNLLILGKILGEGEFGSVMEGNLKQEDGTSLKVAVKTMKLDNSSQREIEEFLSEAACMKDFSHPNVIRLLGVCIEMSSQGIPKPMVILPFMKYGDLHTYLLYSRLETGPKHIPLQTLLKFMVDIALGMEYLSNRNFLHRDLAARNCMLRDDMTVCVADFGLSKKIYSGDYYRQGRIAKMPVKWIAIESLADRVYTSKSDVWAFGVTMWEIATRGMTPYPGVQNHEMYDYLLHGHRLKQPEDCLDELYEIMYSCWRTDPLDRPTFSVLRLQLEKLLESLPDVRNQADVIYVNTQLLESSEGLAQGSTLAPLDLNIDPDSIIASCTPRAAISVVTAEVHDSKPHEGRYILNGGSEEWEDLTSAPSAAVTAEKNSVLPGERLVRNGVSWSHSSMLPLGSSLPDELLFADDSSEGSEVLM
Description: Assay 3: Enzymatic Activity Test of the Compounds of the Present Invention
(§1) Test substances: the compounds of the present invention, wherein the structures and preparations thereof were as described above.
(1) Preparation of the Compound Stock Solution
The compound was dissolved in 100% DMSO to prepare a stock solution with a maximum concentration of 500 μM.
(2) Preparation of the Compound Working Solution
The compound stock solution was diluted to final concentrations of 500, 150, 50, 15, 5, 1.5, 0.5, 0.15 and 0.05 μM to become the compound working solutions (50×).
(3) Preparation of Different Enzyme Reaction Solutions
The Mer (h) enzyme was dissolved in 8 mM MOPS (pH 7.0), 0.2 mM EDTA, 30 mM NaCl, and 250 μM GGMEDIYFEFIVIGGKKK to prepare an enzyme solution having a final concentration of 3.1 nM. The enzymatic reaction was activated by using 10 mM magnesium acetate and 10 μM [γ-^33P]-ATP to form an Mg/ATP mixed solution.
In a 384-well plate, the compound working solution was added to final concentrations of 10000, 3000, 1000, 300, 100, 30, 10, 3, and 1 nM. Then different enzyme reaction solutions prepared according to the above conditions were added. The incubation was carried out for 40 minutes at room temperature. The test was terminated by the addition of a 0.5% phosphoric acid solution. 10 μL of the reaction solution was taken and dropped to the P30 filter paper. The filter paper was washed 4 times with 0.425% phosphoric acid solution and once with methanol, and then placed on a scintillation counter. The […] IC50 values were calculated using GraphPad 5.0 software.

[1] = Stability in liver microsome of mice; format: in vitro ADME; conditions: Mouse liver microsome 0.5 mg protein/mL, compound 1 μM, 37° C.; for half-life at 1 μM / microsomal CLint at 1 μM: liver microsomes
Description: Assay 1: Stability assessment of the compounds of the present invention in liver microsome of mice and dogs
as §1
The composition of the incubation system:
Preparation of Test Substances:
An appropriate amount of the compound was accurately weighed and dissolved in DMSO to prepare a 5.0 mM stock solution. The 5.0 mM stock solution was diluted to 1.0 mM with DMSO, and finally diluted with water to a 10 μM test substance working solution for use (the DMSO content in the reaction system was 0.1%).
(1) The liver microsome (20 mg protein/mL) was taken out from the −80° C. refrigerator, pre-incubated at 37° C. with a water-bathing constant temperature vibrator for 3 minutes, and melted for use.
(2) A mixed solution of the incubation system (excluding compounds and β-NADPH) according to the above “composition of the incubation system” for the assay was prepared, and pre-incubated at 37° C. with a water-bathing constant temperature vibrator for 2 minutes.
(3) Control group (excluding β-NADPH): 30 μL of water and 30 μL of compound working solution (10 μM) were added to 240 μL of the mixed solution of the incubation system of step (2), and vortexed for 30 seconds to mix well. The total reaction volume was 300 μL. A duplicate sample was prepared. The sample was incubated at 37° C. with a water-bathing constant temperature vibrator. The timekeeping began and the sampling time points were set at 0 minute and 60 minutes.
(4) Sample group: 70 μL of β-NADPH solution (10 mM) and 70 μL of compound working solution (10 μM) were added to 560 μL of the mixed solution of step (2). The total reaction volume was 700 μL. The resulting mixture was vortexed for 30 seconds to mix well. A duplicate sample was prepared. The sample was incubated at 37° C. with a water-bathing constant temperature vibrator. The timekeeping began and the sampling time points were set at 0 minute, 5 minutes, 10 minutes, 20 minutes, 30 minutes, and 60 minutes after timekeeping.
(5) After vortexing for 3 minutes, the sample was centrifuged at 4000 rpm for 10 minutes.
(6) 50 μL of the supernatant was taken and 150 μL of water was added. The resulting mixture was vortexed to mix well, and analyzed by LC/MS/MS.
The half-life (t1/2) and clearance rate (Cl) were calculated using the following first-order kinetic formula:
Vd=1/protein content in liver microsome
Note: k was the slope of the logarithm of the remaining amount of the compound versus time, and Vd was the apparent distribution volume.

Compound	IC50 (Mer (h)) [nM]	half-life at 1 μM [1] [h]	microsomal CLint at 1 μM [1] [µL/min/mg]	t1/2 [1]
COc1cc2nccc(Oc3ccc(NC(=O)c4cn(C(C)C)cc(-c5ccc(C)cc5)c4=O)nc3)c2cc1OC [Compound 1, N-(5-((6,7-dimethoxyquinolin-4-yl)oxy)pyridin-2-yl)-1-isopropyl-4-oxo-5-p-tolyl-1,4-dihydropyridin-3-carboxamide]	2	1.27	18.2	
COc1cc2nccc(Oc3ccc(NC(=O)c4cn(C(C)C)cc(-c5ccc(F)cc5)c4=O)nc3)c2cc1OC [Compound 14, N-(5-((6,7-dimethoxyquinolin-4-yl)oxy)pyridin-2-yl)-5-(4-fluorophenyl)-1-isopropyl-4-oxo-1,4-dihydropyridin-3-carboxamide]	2	3.12	7.4	
COc1cc2nccc(Oc3ccc(NC(=O)c4nn(C(C)C)cc(-c5ccc(F)cc5)c4=O)nc3)c2cc1OC [Compound 15, N-(5-((6,7-dimethoxyquinolin-4-yl)oxy)pyridin-2-yl)-5-(4-fluorophenyl)-1-isopropyl-4-oxo-1,4-dihydropyridazine-3-carboxamide]	< 1	6.42	3.6	
COc1cc2nccc(Oc3cnc(NC(=O)c4nn(C(C)C)cc(-c5ccc(F)cc5)c4=O)nc3)c2cc1OC [Compound 16, N-(5-((6,7-dimethoxyquinolin-4-yl)oxy)pyrimidine-2-yl)-5-(4-fluorophenyl)-1-isopropyl-4-oxo-1,4-dihydropyridazine-3-carboxamide]	2	1.63	14.2	
COc1cc2nccc(Oc3cnc(NC(=O)c4cn(C(C)C)cc(-c5ccc(F)cc5)c4=O)nc3)c2cc1OC [Compound 20, N-(5-((6,7-dimethoxyquinolin-4-y)oxy)pyrimidine-2-yl)-5-(4-fluorophenyl)-1-isopropyl-4-oxo-1,4-dihydropyridin-3-carboxamide]	3	5.5	4.2	
COc1cc2nccc(Oc3ccc(NC(=O)c4nn(C(C)C)cc(-c5ccc(F)cc5)c4=O)cn3)c2cc1OC [Compound 29, N-(6-((6,7-dimethoxyquinolin-4-yl)oxy)pyridin-3-yl)-1-isopropyl-4-oxo-5-para-fluorophenyl-1,4-dihydropyridazine-3-carboxamide]	1	3.22	7.2	
COc1cc2nccc(Oc3ccc(NC(=O)c4cn(C5CC5)cc(-c5ccc(F)cc5)c4=O)nc3)c2cc1OC [Compound 30, N-(5-((6,7-dimethoxyquinolin-4-yl)oxy)pyridin-2-yl)-1-cyclopropyl-4-oxo-5-para-fluorophenyl-1,4-hydropyridin-3-carboxamide]	< 1	0.888	26	
COc1cc2nccc(Oc3ccc(NC(=O)c4nn(C5CC5)cc(-c5ccc(F)cc5)c4=O)nc3)c2cc1OC [Compound 31]	< 1	14.4	1.6	
COc1cc2nccc(Oc3cnc(NC(=O)c4cn(C5CC5)cc(-c5ccc(F)cc5)c4=O)nc3)c2cc1OC [Compound 32, 1-cyclopropyl-N-(5-((6,7-dimethoxyquinolin-4-yl)oxy)pyrimidine-2-yl)-5-(4-fluorophenyl)-4-oxo-1,4-dihydropyridin-3-carboxamide]	2	4.13	5.6	
COc1cc2nccc(Oc3cnc(NC(=O)c4nn(C5CC5)cc(-c5ccc(F)cc5)c4=O)nc3)c2cc1OC [Compound 33]	< 1	2.75	8.4	
COc1cc2nccc(Oc3ccc(NC(=O)c4cn(C(C)C)nc(-c5ccc(F)cc5)c4=O)cn3)c2cc1OC [Compound 38, N-(6-((6,7-dimethoxyquinolin-4-yl)oxy)pyridin-3-yl)-6-para-fluorophenyl-2-isopropyl-5-oxo-2,5-dihydropyridazine-4-carboxamide]	3			
COc1cc2nccc(Oc3ccc(NC(=O)c4cn(C(C)C)nc(-c5ccc(F)cc5)c4=O)nc3)c2cc1OC [Compound 41, N-(5-((6,7-dimethoxyquinolin-4-yl)oxy)pyridin-2-yl)-6-(4-fluorophenyl)-2-isopropyl-5-oxo-2,5-dihydropyridazine-4-carboxamide]	2			
COc1cc2nccc(Oc3ccc(NC(=O)c4cn(C5CC5)nc(-c5ccc(F)cc5)c4=O)nc3)c2cc1OC [Compound 42, 2-cyclopropyl-N-(5--((6,7-dimethoxyquinolin-4-yl)oxy)pyridin-2-yl)-6-(4-fluorophenyl)-5-oxo-2,5-dihydropyridazine-4-carboxamide]				→∞
COc1cc2nccc(Oc3ccc(NC(=O)c4cn(C5CC5)nc(-c5ccc(F)cc5)c4=O)cn3)c2cc1OC [Compound 43, 2-cyclopropyl-N-(6-((6,7-dimethoxyquinolin-4-yl)oxy)pyridin-3-yl)-6-para-fluorophenyl-5-oxo-2,5-dihydropyridazine-4-carboxamide]		10.5	2.2	
COc1cc2nccc(Oc3cnc(NC(=O)c4cn(C5CC5)nc(-c5ccc(F)cc5)c4=O)nc3)c2cc1OC [Compound 45, 2-cyclopropyl-N-(5-((6,7-dimethoxyquinolin-4-yl)oxy)pyrimidine-2-yl)-6-(4-fluorophenyl)-5-oxo-2,5-dihydropyridazine-4-carboxamide]		3.3	7	
COc1cc2nccc(Oc3ccc(NC(=O)c4nn(C5CC5)cc(-c5ccc(C)cc5)c4=O)nc3)c2cc1OC [Compound 46, 1-cyclopropyl-N-(5-((6,7-dimethoxyquinolin-4-yl)oxy)pyridin-2-yl)-4-oxo-5-p-tolyl-1,4-dihydropyridazine-3-carboxamide]				→∞
